Here are results for 27 molecules from patent publication US8324186B2, “4-azetidinyl-1-heteroatom linked-cyclohexane antagonists of CCR2” (Janssen Pharmaceutica N.V., priority 2009, dated 2012).

T1 sequence (P41597 whole entry): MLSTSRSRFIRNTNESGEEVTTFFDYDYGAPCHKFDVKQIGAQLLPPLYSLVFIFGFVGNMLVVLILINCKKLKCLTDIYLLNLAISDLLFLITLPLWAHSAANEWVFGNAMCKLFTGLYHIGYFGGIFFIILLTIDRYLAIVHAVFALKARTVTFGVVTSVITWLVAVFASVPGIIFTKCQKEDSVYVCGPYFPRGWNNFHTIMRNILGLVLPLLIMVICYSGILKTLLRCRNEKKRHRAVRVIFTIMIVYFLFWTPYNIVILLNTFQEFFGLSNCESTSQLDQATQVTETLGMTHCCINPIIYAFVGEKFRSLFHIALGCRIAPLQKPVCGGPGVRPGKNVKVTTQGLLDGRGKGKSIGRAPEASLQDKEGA

The assay has as its target T1, CCR2 (Homo sapiens, UniProt P41597).
T1 construct: host or cells: THP-1 human monocytic cells
Description: MCP-1 Receptor Binding Assay in THP-1 Cells (125I-MCP-1 displacement). The conditions noted are these: 0.5 nM 125I labeled MCP-1, 2 hours at 30° C., read-out: CCR2 Binding, Inhibition of MCP-1 Binding IC50. Here is the method: Compounds of the invention were subjected to various representative biological tests. The results of these tests are intended to illustrate the invention in a non-limiting fashion. MCP-1 Receptor Binding Assay in THP-1 Cells
Human monocytic cell line THP-1 cells were obtained from American Type Culture Collection (Manassas, Va., USA). The THP-1 cells were grown in RPMI-1640 (RPMI: Roswell Park Memorial Institute Medium-cell culture growth media) supplemented with 10% fetal bovine serum in a humidified 5% CO2 atmosphere at 37° C. The cell density was maintained […].
THP-1 (cells were incubated with 0.5 nM ^125I labeled MCP-1 (Perkin-Elmer Life Sciences, Inc. Boston, Mass.) in the presence of varying concentrations of either unlabeled MCP-1 (R & D Systems, Minneapolis, Minn.) or test compound for 2 hours at 30° C. in a 96 well plate. Cells were then harvested onto a filter plate, dried, and 20 μL of Microscint 20 was added to each well. Plates were counted in a TopCount NXT, Microplate Scintillation & Luminescence Counter (Perkin-Elmer Life Sciences, Inc. Boston, Mass.). Blank values (buffer only) were subtracted from all values and drug treated values were compared to vehicle treated values. 1 μM cold MCP-1 was used for nonspecific binding.
Table 1 lists IC50 values for inhibition of MCP-1 binding to CCR2 obtained for test compounds of the invention. Where an IC50 value was not obtained for a particular compound, the percent inhibition is provided at a test concentration of 25 μM.
With `O=C(CNC(=O)c1cccc(C(F)(F)F)c1)NC1CN(C2CCC(n3ccccc3=O)CC2)C1` (single isomer, unassigned) [Example 1a, N-({1-[4-(2-Oxo-2H-pyridin-1-yl)-cyclohexyl]-azetidin-3-ylcarbamoyl}-methyl)-3-trifluoromethyl-benzamide], the IC50 is 130 nM.

As to `Cc1ccnc(OC2CCC(N3CC(NC(=O)CNC(=O)c4cccc(C(F)(F)F)c4)C3)CC2)c1` (stereo not drawn) [Example 19, N-({1-[4-(4-Methyl-pyridin-2-yloxy)-cyclohexyl]-azetidin-3-ylcarbamoyl}-methyl)-3-trifluoromethyl-benzamide], the IC50 turned out to be 66 nM.

With `O=C(CNC(=O)c1cccc(C(F)(F)F)c1)NC1CN(C2CCC(n3cc(Br)cnc3=O)CC2)C1` (stereo not drawn) [Example 3, N-({1-[4-(5-Bromo-2-oxo-2H-pyrimidin-1-yl)-cyclohexyl]-azetidin-3-ylcarbamoyl}-methyl)-3-trifluoromethyl-benzamide], the IC50 amounted to 2200 nM.

Regarding `O=C(CNC(=O)c1cccc(C(F)(F)F)c1)NC1CN(C2CCC3(CC2)NC(=O)c2ccccc23)C1` (single isomer, unassigned) [Example 39a], the IC50 stood at 1500 nM.

As for `O=C(CNC(=O)c1cccc(C(F)(F)F)c1)NC1CN(C2CCC(n3cnccc3=O)CC2)C1` (single isomer, unassigned) [Example 6a, N-({1-[4-(6-Oxo-6H-pyrimidin-1-yl)-cyclohexyl]-azetidin-3-ylcarbamoyl}-methyl)-3-trifluoromethyl-benzamide], the IC50 is 380 nM.

As for `COc1cccnc1OC1CCC(N2CC(NC(=O)CNC(=O)c3cccc(C(F)(F)F)c3)C2)CC1` (stereo not drawn) [Example 14, N-({1-[4-(3-Methoxy-pyridin-2-yloxy)-cyclohexyl]-azetidin-3-ylcarbamoyl}-methyl)-3-trifluoromethyl-benzamide], the IC50 came out at 280 nM.

In the case of `Cc1cccn(C2CCC(N3CC(NC(=O)CNC(=O)c4cccc(C(F)(F)F)c4)C3)CC2)c1=O` (single isomer, unassigned) [Example 18a, N-({1-[4-(3-Methyl-2-oxo-2H-pyridin-1-yl)-cyclohexyl]-azetidin-3-ylcarbamoyl}-methyl)-3-trifluoromethyl-benzamide], the IC50 stood at 330 nM.

For `O=C(CNC(=O)c1cccc(C(F)(F)F)c1)NC1CN(C2CCC(n3cc(Cl)ccc3=O)CC2)C1` (single isomer, unassigned) [Example 22a, N-({1-[4-(2-Oxo-5-chloro-2H-pyridin-1-yl)-cyclohexyl]-azetidin-3-ylcarbamoyl}-methyl)-3-trifluoromethyl-benzamide], the IC50 came to 1100 nM.

As for `O=C(CNC(=O)c1cccc(C(F)(F)F)c1)NC1CN(C2CCC3(CC2)OC(=O)c2ccccc23)C1` (single isomer, unassigned) [Example 38a], the IC50 was 920 nM.

Turning to `O=C(CNC(=O)c1cccc(C(F)(F)F)c1)NC1CN(C2CCC(N3C(=O)c4ccccc4C3=O)CC2)C1` (single isomer, unassigned) [Example 24a, N-({1-[4-(1,3-Dioxo-1,3-dihydro-isoindol-2-yl)-cyclohexyl]-azetidin-3-ylcarbamoyl}-methyl)-3-trifluoromethyl-benzamide], the IC50 was 680 nM.

For the molecule `O=C(CNC(=O)c1cccc(C(F)(F)F)c1)NC1CN(C2CCC(n3ccc(=O)cc3)CC2)C1` (stereo not drawn) [Example 16, N-({1-[4-(4-Oxo-4H-pyridin-1-yl)-cyclohexyl]-azetidin-3-ylcarbamoyl}-methyl)-3-trifluoromethyl-benzamide], the IC50 amounted to 7100 nM.

As to `O=C(CNC(=O)c1cccc(C(F)(F)F)c1)NC1CN(C2CCC(n3cccnc3=O)CC2)C1` (stereo not drawn) [Example 4, N-({1-[4-(2-Oxo-2H-pyrimidin-1-yl)-cyclohexyl]-azetidin-3-ylcarbamoyl}-methyl)-3-trifluoromethyl-benzamide], the IC50 amounted to 5900 nM.

As to `O=C(CNC(=O)c1cccc(C(F)(F)F)c1)NC1CN(C2CCC(n3cc(I)cn3)CC2)C1` (stereo not drawn) [Example 28, N-({1-[4-(4-Iodo-pyrazol-1-yl)-cyclohexyl]-azetidin-3-ylcarbamoyl}-methyl)-3-trifluoromethyl-benzamide], the IC50 was 110 nM.

In the case of `N#Cc1ccc(=O)n(C2CCC(N3CC(NC(=O)CNC(=O)c4cccc(C(F)(F)F)c4)C3)CC2)c1` (stereo not drawn) [Example 10, N-({1-[4-(5-Cyano-2-oxo-2H-pyridin-1-yl)-cyclohexyl]-azetidin-3-ylcarbamoyl}-methyl)-3-trifluoromethyl-benzamide], the IC50 was 1000 nM.

Regarding `COc1cccn(C2CCC(N3CC(NC(=O)CNC(=O)c4cccc(C(F)(F)F)c4)C3)CC2)c1=O` (single isomer, unassigned) [Example 13a, N-({1-[4-(3-Methoxy-2-oxo-2H-pyridin-1-yl)-cyclohexyl]-azetidin-3-ylcarbamoyl}-methyl)-3-trifluoromethyl-benzamide], the IC50 amounted to 100 nM.

Regarding `O=C(CNC(=O)c1cccc(C(F)(F)F)c1)NC1CN(C2CCC(n3cc(C(F)(F)F)ccc3=O)CC2)C1` (single isomer, unassigned) [Example 21a, N-({1-[4-(2-Oxo-5-trifluoromethyl-2H-pyridin-1-yl)-cyclohexyl]-azetidin-3-ylcarbamoyl}-methyl)-3-trifluoromethyl-benzamide], the IC50 is 6500 nM.

In the case of `O=C(CNC(=O)c1cccc(C(F)(F)F)c1)NC1CN(C2CCC(Oc3ncc(Br)cn3)CC2)C1` (single isomer, unassigned) [Example 5a, N-({1-[4-(5-Bromo-pyrimidin-2-yloxy)-cyclohexyl]-azetidin-3-ylcarbamoyl}-methyl)-3-trifluoromethyl-benzamide], the half-inhibitory concentration (IC50) was determined as 24000 nM.

With `O=C(CNC(=O)c1cccc(C(F)(F)F)c1)NC1CN(C2CCC(Oc3noc4ccccc34)CC2)C1` (single isomer, unassigned) [Example 25a, N-({1-[4-(Benzo[d]isoxazol-3-yloxy)-cyclohexyl]azetidin-3-ylcarbamoyl}-methyl)-3-trifluoromethyl-benzamide], the IC50 amounted to 340 nM.

As for `C#Cc1cnn(C2CCC(N3CC(NC(=O)CNC(=O)c4cccc(C(F)(F)F)c4)C3)CC2)c1` (single isomer, unassigned) [Example 30a, N-({1-[4-(4-Ethynyl-pyrazol-1-yl)-cyclohexyl]-azetidin-3-ylcarbamoyl}-methyl)-3-trifluoromethyl-benzamide], the 50% inhibitory concentration (IC50) worked out at 88 nM.

As for `O=C(CNC(=O)c1cccc(C(F)(F)F)c1)NC1CN(C2CCC3(CC2)OC(=O)Nc2ccccc23)C1` (single isomer, unassigned) [Example 40a], the IC50 was 2200 nM.

With `C#Cc1ccc(=O)n(C2CCC(N3CC(NC(=O)CNC(=O)c4cccc(C(F)(F)F)c4)C3)CC2)c1` (stereo not drawn) [Example 9, N-({1-[4-(5-Ethynyl-2-oxo-2H-pyridin-1-yl)-cyclohexyl]-azetidin-3-ylcarbamoyl}-methyl)-3-trifluoromethyl-benzamide], the IC50 worked out at 1600 nM.

For `Cc1ccc(OC2CCC(N3CC(NC(=O)CNC(=O)c4cccc(C(F)(F)F)c4)C3)CC2)nc1` (single isomer, unassigned) [Example 12a, N-({1-[4-(5-Methyl-pyridin-2-yloxy)-cyclohexyl]-azetidin-3-ylcarbamoyl}-methyl)-3-trifluoromethyl-benzamide], the IC50 is 820 nM.

As to `O=C(CNC(=O)c1cccc(C(F)(F)F)c1)NC1CN(C2CCC(Oc3ccncn3)CC2)C1` (single isomer, unassigned) [Example 7a, N-({1-[4-(Pyrimidin-4-yloxy)-cyclohexyl]-azetidin-3-ylcarbamoyl}-methyl)-3-trifluoromethyl-benzamide], the IC50 turned out to be 2700 nM.

For `O=C(CNC(=O)c1cccc(C(F)(F)F)c1)NC1CN(C2CCC(n3cc(I)ccc3=O)CC2)C1` (single isomer, unassigned) [Example 8a, N-({1-[4-(5-Iodo-2-oxo-2H-pyridin-1-yl)-cyclohexyl]-azetidin-3-ylcarbamoyl}-methyl)-3-trifluoromethyl-benzamide], the IC50 worked out at 430 nM.

As to `O=C(CNC(=O)c1cccc(C(F)(F)F)c1)NC1CN(C2CCC(n3oc4ccccc4c3=O)CC2)C1` (single isomer, unassigned) [Example 26a, N-({1-[4-(3-Oxo-3H-benzo[d]isoxazol-2-yl)-cyclohexyl]-azetidin-3-ylcarbamoyl}-methyl)-3-trifluoromethyl-benzamide], the half-inhibitory concentration (IC50) came out at 95 nM.

As for `O=C(CNC(=O)c1cccc(C(F)(F)F)c1)NC1CN(C2CCC(n3ccc(O)cc3=O)CC2)C1` (single isomer, unassigned) [Example 15a, N-({1-[4-(4-Hydroxy-2-oxo-2H-pyridin-1-yl)-cyclohexyl]-azetidin-3-ylcarbamoyl}-methyl)-3-trifluoromethyl-benzamide], the IC50 stood at 5400 nM.

Regarding `C[Si](C)(C)C#Cc1cnn(C2CCC(N3CC(NC(=O)CNC(=O)c4cccc(C(F)(F)F)c4)C3)CC2)c1` (single isomer, unassigned) [Example 29a, 3-Trifluoromethyl-N-({1-[4-(4-trimethylsilanylethynyl-pyrazol-1-yl)-cyclohexyl]-azetidin-3-ylcarbamoyl}-methyl)-benzamide], the IC50 turned out to be 21 nM.

As usually defined, the IC50 is the midpoint of a concentration-inhibition curve.
